target: T1, Cholesteryl ester transfer protein (Oryctolagus cuniculus) (UniProt P22687); assay: Inhibition of CETP in rabbit serum at 10 uM after 1 hr by fluorescent cholesteryl esters transfer assay; settings: not given
T1 sequence (whole entry): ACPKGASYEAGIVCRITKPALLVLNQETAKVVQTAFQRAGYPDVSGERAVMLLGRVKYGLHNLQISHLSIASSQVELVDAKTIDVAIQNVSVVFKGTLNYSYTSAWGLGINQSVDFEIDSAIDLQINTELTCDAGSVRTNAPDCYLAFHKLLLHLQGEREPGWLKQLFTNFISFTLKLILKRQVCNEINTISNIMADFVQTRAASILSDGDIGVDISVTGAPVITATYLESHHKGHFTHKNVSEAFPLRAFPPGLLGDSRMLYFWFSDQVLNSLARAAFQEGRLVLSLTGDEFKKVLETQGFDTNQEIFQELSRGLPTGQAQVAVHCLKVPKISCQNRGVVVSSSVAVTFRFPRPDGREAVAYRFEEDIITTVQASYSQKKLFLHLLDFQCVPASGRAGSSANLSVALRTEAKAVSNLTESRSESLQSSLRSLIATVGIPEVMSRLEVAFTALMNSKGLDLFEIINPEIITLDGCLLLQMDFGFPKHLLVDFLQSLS

SMILES	inhibition
CCCCCCCCOC(=O)c1ccc2c(c1)Nc1cc3ccccc3cc1N2	33%
Cc1ccc(Nc2ccc(Nc3ccc(C)cc3)c3c2C(=O)c2cc(Cl)c(Cl)cc2C3=O)cc1	20.8%
OCc1cc(C(O)CNCCCCCCOCCCCc2ccccc2)ccc1O (stereo not given)	27.4%
C=CCc1cccc(/C=N/c2ccccc2NS(=O)(=O)c2ccc(C)cc2)c1O	22.6%
O=C(Nc1ccc2c(c1)CCC2)c1ccc(C(=O)Nc2ccc3c(c2)CCC3)cc1	0%
O=C(Nc1ccc(Br)cc1)N1CCN(C(=O)Nc2ccc(Br)cc2)CC1	0%
CCSc1nc2ccc(/N=C\c3ccc(NS(=O)(=O)c4ccccc4)cc3O)cc2s1	0%
COc1cc(N)c(Cl)cc1C(=O)NC1CCN(CCCOc2ccc(F)cc2)CC1OC (stereo not given)	10.6%
O=C(c1ccccc1)c1cccc(/N=C/c2ccc(C(F)(F)F)cc2)c1	26.3%
COc1ccc(C(=O)c2cccc(/N=C/c3ccccc3)c2)cc1	12.6%
O=C(NCCCOc1ccc(Cl)c(Cl)c1)NCCc1ccc(Cl)c(Cl)c1	0%
O=C(c1ccccc1)c1ccccc1NCC(O)COc1ccc(Cl)cc1 (stereo not given)	0%
Cc1ccc(Nc2ccc(Nc3ccc(C)cc3)c3c2C(=O)c2cccc(O)c2C3=O)cc1	14%
CC(C)OC(=O)CCC/C=C\C[C@@H]1[C@@H](/C=C/[C@@H](O)COc2cccc(C(F)(F)F)c2)[C@H](O)C[C@@H]1O	0%
CCCNCC(O)COc1ccccc1C(=O)CCc1ccccc1 (stereo not given)	0%
CC(C)(C)c1ccc(C(O)CCCN2CCC(C(O)(c3ccccc3)c3ccccc3)CC2)cc1 (stereo not given)	0%
COc1ccc(C(=O)c2ccc(/N=C/c3ccc(C(C)(C)C)cc3)cc2)c(OC)c1	24.9%
COc1ccc(Cl)cc1C(=O)NCCc1ccc(S(=O)(=O)NC(=O)NC2CCCCC2)cc1 [GLYBURIDE]	35%
Cc1cc(Cl)c(Cl)cc1NC(=O)c1cccc(C(=O)Nc2cc(Cl)c(Cl)cc2C)c1	0%

SMILES	inhibition
O=C(NC(=O)c1c(F)cccc1F)Nc1ccc(Cl)c(Oc2ncc(C(F)(F)F)cc2Cl)c1	0%
CCOc1cc(C2SCC(=O)N2c2ccc(Oc3ccc(Cl)cc3)c(Cl)c2)ccc1O (stereo not given)	6.7%
CN(CN(C)/N=C\c1ccc(Cl)cc1)/N=C\c1ccc(Cl)cc1	0%
O=C(Nc1ccc(Cl)cc1C(F)(F)F)Oc1ccc(OCc2ccccc2)cc1	22.1%
O=C(c1ccccc1)c1cc(Cl)ccc1NCC(O)COc1ccc(Cl)cc1 (stereo not given)	8.1%
O=C(COc1cccc(Cl)c1)Nc1cccc(CN2C(=O)c3ccccc3C2=O)c1	0%
CCN(CC)Cc1cc(Nc2ccnc3cc(Cl)ccc23)ccc1O	18.6%
O=c1oc2ccccc2c(O)c1C(CC(O)c1ccc(-c2ccc(Br)cc2)cc1)c1ccccc1 (stereo not given)	0%
OC1=C2Nc3ccc(Cl)cc3N=C2OC1c1c[nH]c2ccc(COc3ccccc3)cc12 (stereo not given)	9.1%
Cc1ccc(S(=O)(=O)Nc2cccc3c(NS(=O)(=O)c4ccc(C)cc4)cccc23)cc1	0%
COc1ccc(/C=N/c2ccc(C(=O)c3ccccc3)cc2)cc1	19.9%
Cc1cc[n+](CC(=O)CCc2ccc(C(=O)C[n+]3ccc(C)cc3)cc2)cc1	6%
CC(C)OC(=O)CCC/C=C\C[C@@H]1[C@@H](CC[C@@H](O)CCc2ccccc2)[C@H](O)C[C@@H]1O	11.4%
OC(COc1c(Cl)cc(Cl)cc1Cl)COc1c(Cl)cc(Cl)cc1Cl	0%
Clc1ccc2c(NCCCC/N=C/c3ccccc3)cccc2c1	0%
O=C(c1ccc(-c2ccccc2)cc1)c1cccc(/N=C/c2cccc(C(F)(F)F)c2)c1	33.8%
CCN(CC)c1ccc(Nc2ccc(CC(=O)c3ccccc3)cc2)cc1	52.5%
Cc1ccc(NC(=O)c2ccc(C(=O)Nc3ccc(C)c(Cl)c3)cc2)cc1Cl	0%
C/C=C/c1ccc2oc(-c3ccc(OC4OC(C)C(O)C(O)C4O)cc3)c(C)c2c1 (stereo not given)	9%

SMILES	inhibition
N=c1[nH]c(=O)n(CCCOc2cccc(Cl)c2)cc1-c1ccc(Cl)c(Cl)c1	0%
N=C(Nc1cccc2ccccc12)SCCCSC(=N)Nc1cccc2ccccc12	0%
CC(C)C[C@H]1C(=O)N2CCC[C@H]2[C@]2(O)O[C@](NC(=O)[C@@H]3C=C4c5cccc6[nH]c(Br)c(c56)C[C@H]4N(C)C3)(C(C)C)C(=O)N12	12.3%
CC(C)(C(=O)O)c1ccc(C(O)CCCN2CCC(C(O)(c3ccccc3)c3ccccc3)CC2)cc1 (stereo not given)	0%
COc1ccc(/N=C/c2ccc(N(CCC#N)S(=O)(=O)c3ccccc3)cc2)cc1	0%
O=S(=O)(Nc1ccc(CSc2ccc(Cl)cc2)cc1)c1ccccc1	82.5%
COc1ccc(/C=N/c2cccc(C(=O)c3ccc(OC)cc3)c2)cc1	14.8%
O=C(c1ccc(/N=C/c2cccc(C(F)(F)F)c2)cc1)c1ccc(-c2ccccc2)cc1	9.8%
C[C@]12CC[C@@H]3c4ccc(O)cc4C[C@@H](CCCCCCCCC[S+]([O-])CCCC(F)(F)C(F)(F)F)[C@H]3[C@@H]1CC[C@@H]2O (stereo not given in full)	5.7%
O=C(Nc1ccc(Cl)c(Cl)c1)OCC(Cl)COc1ccc(Cl)cc1 (stereo not given)	0%
N=c1[nH]c(=O)n(CCCOc2ccccc2)cc1-c1ccc(Cl)c(Cl)c1	0%
COc1ccc(CCN2CCC(Nc3nc4ccccc4n3Cc3ccc(F)cc3)CC2)cc1	20.8%
COc1ccc(C(=O)c2ccc(/N=C/c3ccc(C(F)(F)F)cc3)cc2)c(OC)c1	15.4%
CCCCOc1ccc(NC(=N)Nc2ccc(Cl)cc2)cc1	0%
COc1ccc2nc3cc(Cl)ccc3c(Nc3ccc(C(O)CCn4cccc4)cc3)c2c1 (stereo not given)	13.4%
CCOc1ccc(/N=C/c2ccc(O)c(OC)c2)c(O)c1	25.5%
CCCCOc1ccc2nccc(N/N=C/c3ccc(OC)c4ccccc34)c2c1	25.4%
CC(C)[C@H](Nc1ccc(C(F)(F)F)cc1Cl)C(=O)OC(C#N)c1cccc(Oc2ccccc2)c1 (stereo not given in full)	0%

target: T2, Cholesteryl ester transfer protein (Oryctolagus cuniculus, UniProt P22687); assay: Inhibition of CETP in rabbit serum after 1 hr by fluorescent cholesteryl esters transfer assay; settings: read-out: IC50
T2 sequence (P22687 whole entry): T1 sequence (whole entry)

SMILES	IC50
CCCCCCCCOC(=O)c1ccc2c(c1)Nc1cc3ccccc3cc1N2	60.3 µM
COc1ccc(Cl)cc1C(=O)NCCc1ccc(S(=O)(=O)NC(=O)NC2CCCCC2)cc1 [GLYBURIDE]	239 µM
CCN(CC)c1ccc(Nc2ccc(CC(=O)c3ccccc3)cc2)cc1	6.5 µM
O=S(=O)(Nc1ccc(CSc2ccc(Cl)cc2)cc1)c1ccccc1	1.9 µM
